Assay results as given in patent US10301280B2 (Plexxikon Inc., priority 2012, dated 2019).

Tested on: BaF3-FL KIT D816V or BaF3-FL KIT V560G/D816V cell line
Experiment: Cell-based assays of c-Kit mutant kinase activity (cell growth, ATPlite)
Details: at least one of the c-kit cell assays of Example 26
Procedure, shortened: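 IC50 derived from ATP-content luminescence (ATPlite) after three-day compound exposure at 37° C., 5% CO2. Cells: BaF3 rendered growth-dependent on full-length human KIT D816V or V560G/D816V, 1×10^4 per well, RPMI plus 10% FBS; 8 points, 1:3 steps, maximum 10 μM final, 0.2% DMSO.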

Row | SMILES | IC50
1 | Cc1[nH]nc(C(=O)Nc2cnc3[nH]c(-c4ccnc(C(=O)N5CCCC5)c4)cc3c2)c1C [P-2218, 4,5-dimethyl-N-(2-(2-(pyrrolidine-1-carbonyl)pyridin-4-yl)-1H-pyrrolo[2,3-b]pyridin-5-yl)-1H-pyrazole-3-carboxamide] | < 10 µM
2 | Cc1[nH]nc(C(=O)Nc2cnc3[nH]cc(-c4cccc(N5CCNCC5)n4)c3c2)c1C [P-2190, 4,5-dimethyl-N-(3-(6-(piperazin-1-yl)pyridin-2-yl)-1H-pyrrolo[2,3-b]pyridin-5-yl)-1H-pyrazole-3-carboxamide] | < 10 µM
3 | Cc1ncc(-c2cc3cc(NC(=O)c4[nH]nc(C)c4C)cnc3[nH]2)s1 [P-2091, 3,4-dimethyl-N-[2-(2-methylthiazol-5-yl)-1H-pyrrolo[2,3-b]pyridin-5-yl]-1H-pyrazole-5-carboxamide] | < 10 µM
4 | Cc1n[nH]c(C(=O)Nc2cnc3[nH]c(-c4cccc(Cl)c4)cc3c2)c1C [P-2095, N-[2-(3-chlorophenyl)-1H-pyrrolo[2,3-b]pyridin-5-yl]-3,4-dimethyl-1H-pyrazole-5-carboxamide] | < 10 µM
5 | Cc1n[nH]c(C(=O)Nc2cnc3[nH]c(-c4cccnc4)cc3c2)c1C [P-2088, 3,4-dimethyl-N-[2-(3-pyridyl)-1H-pyrrolo[2,3-b]pyridin-5-yl]-1H-pyrazole-5-carboxamide] | < 10 µM
6 | COCCCOc1ccc(-c2cc3cc(NC(=O)c4[nH]nc(C)c4C)cnc3[nH]2)cc1 [P-2102, N-[2-[4-(3-methoxypropoxy)phenyl]-1H-pyrrolo[2,3-b]pyridin-5-yl]-3,4-dimethyl-1H-pyrazole-5-carboxamide] | < 10 µM
7 | Cc1n[nH]c(C(=O)Nc2cnc3[nH]c(-c4cccc(F)c4)cc3c2)c1C [P-2094, N-[2-(3-fluorophenyl)-1H-pyrrolo[2,3-b]pyridin-5-yl]-3,4-dimethyl-1H-pyrazole-5-carboxamide] | < 10 µM
8 | COc1cccc(-c2cc3cc(NC(=O)c4[nH]nc(C)c4C)cnc3[nH]2)c1 [P-2098, N-[2-(3-methoxyphenyl)-1H-pyrrolo[2,3-b]pyridin-5-yl]-3,4-dimethyl-1H-pyrazole-5-carboxamide] | < 10 µM
9 | CONC(=O)c1cc(-c2cc3cc(NC(=O)c4n[nH]c(C)c4C)cnc3[nH]2)ccn1 [P-2223, 4-(5-(4,5-dimethyl-1H-pyrazole-3-carboxamido)-1H-pyrrolo[2,3-b]pyridin-2-yl)-N-methoxypicolinamide] | < 10 µM
10 | Cc1[nH]nc(C(=O)Nc2cnc3[nH]c(-c4ccnc(C(=O)N5CCSCC5)c4)cc3c2)c1C [P-2219, 4,5-dimethyl-N-(2-(2-(thiomorpholine-4-carbonyl)pyridin-4-yl)-1H-pyrrolo[2,3-b]pyridin-5-yl)-1H-pyrazole-3-carboxamide] | < 10 µM
11 | Cc1n[nH]c(C(=O)Nc2cnc3[nH]c(-c4ccc(F)cc4)cc3c2)n1 [P-2131, N-[2-(4-fluorophenyl)-1H-pyrrolo[2,3-b]pyridin-5-yl]-3-methyl-1H-1,2,4-triazole-5-carboxamide] | < 10 µM
12 | Cc1n[nH]c(C(=O)Nc2cnc3[nH]c(-c4ccc(N5CCOCC5)nc4)cc3c2)c1C [P-2089, 3,4-dimethyl-N-[2-(6-morpholino-3-pyridyl)-1H-pyrrolo[2,3-b]pyridin-5-yl]-1H-pyrazole-5-carboxamide] | < 10 µM
13 | Cc1n[nH]c(C(=O)Nc2cnc3[nH]c(-c4cccc(C#N)c4)cc3c2)c1C [P-2128, N-[2-(3-cyanophenyl)-1H-pyrrolo[2,3-b]pyridin-5-yl]-3,4-dimethyl-1H-pyrazole-5-carboxamide] | < 10 µM
14 | Cc1n[nH]c(CNc2cnc3[nH]c(-c4ccc(F)cc4)cc3c2)c1Cl [P-2141, N-[(4-chloro-5-methyl-1H-pyrazol-3-yl)methyl]-2-(4-fluorophenyl)-1H-pyrrolo[2,3-b]pyridin-5-amine] | < 10 µM
15 | CC(=O)N1CCC(n2cc(-c3cc4cc(NC(=O)c5n[nH]c(C)c5C)cnc4[nH]3)c(C)n2)CC1 [P-2202, N-(2-(1-(1-acetylpiperidin-4-yl)-3-methyl-1H-pyrazol-4-yl)-1H-pyrrolo[2,3-b]pyridin-5-yl)-4,5-dimethyl-1H-pyrazole-3-carboxamide] | < 10 µM
16 | COc1nc(C)ccc1-c1cc2cc(NC(=O)c3[nH]nc(C)c3C)cnc2[nH]1 [P-2170, N-[2-(2-methoxy-6-methyl-3-pyridyl)-1H-pyrrolo[2,3-b]pyridin-5-yl]-3,4-dimethyl-1H-pyrazole-5-carboxamide] | < 10 µM
17 | Cc1nc(C)c(-c2cc3cc(NC(=O)c4[nH]nc(C)c4C)cnc3[nH]2)s1 [P-2139, N-[2-(2,4-dimethylthiazol-5-yl)-1H-pyrrolo[2,3-b]pyridin-5-yl]-3,4-dimethyl-1H-pyrazole-5-carboxamide] | < 10 µM
18 | Cc1n[nH]c(C(=O)Nc2cnc3[nH]c(-c4ccc(NS(C)(=O)=O)cc4)cc3c2)c1C [P-2111, N-[2-[4-(methanesulfonamido)phenyl]-1H-pyrrolo[2,3-b]pyridin-5-yl]-3,4-dimethyl-1H-pyrazole-5-carboxamide] | < 10 µM

The remaining lines, values ahead:

Row | IC50 | SMILES
19 | < 10 µM | Cc1[nH]nc(C(=O)Nc2cnc3[nH]c(-c4cncc(F)c4)cc3c2)c1C [P-2253, N-(2-(5-fluoropyridin-3-yl)-1H-pyrrolo[2,3-b]pyridin-5-yl)-4,5-dimethyl-1H-pyrazole-3-carboxamide]
20 | < 10 µM | Cc1[nH]nc(C(=O)Nc2cnc3[nH]c(-c4ccccc4OC(F)F)cc3c2)c1C [P-2263, N-(2-(2-(difluoromethoxy)phenyl)-1H-pyrrolo[2,3-b]pyridin-5-yl)-4,5-dimethyl-1H-pyrazole-3-carboxamide]
21 | < 10 µM | Cc1n[nH]c(C(=O)N(C)c2cnc3[nH]c(-c4ccccc4)cc3c2)c1C [P-2304, N,3,4-trimethyl-N-(2-phenyl-1H-pyrrolo[2,3-b]pyridin-5-yl)-1H-pyrazole-5-carboxamide]
22 | < 10 µM | Cc1[nH]nc(C(=O)Nc2cnc3[nH]c(-c4ccnc(OC(C)C)c4)cc3c2)c1C [P-2248, N-(2-(2-isopropoxypyridin-4-yl)-1H-pyrrolo[2,3-b]pyridin-5-yl)-4,5-dimethyl-1H-pyrazole-3-carboxamide]
23 | < 10 µM | Cc1[nH]nc(C(=O)Nc2cnc3[nH]c(C4=CCOCC4)cc3c2)c1C [P-2265, N-(2-(3,6-dihydro-2H-pyran-4-yl)-1H-pyrrolo[2,3-b]pyridin-5-yl)-4,5-dimethyl-1H-pyrazole-3-carboxamide]
24 | < 10 µM | Cc1n[nH]c(C(=O)Nc2cnc3[nH]c(C4=CCCCC4)cc3c2)c1C [P-2307, N-[2-(cyclohexen-1-yl)-1H-pyrrolo[2,3-b]pyridin-5-yl]-3,4-dimethyl-1H-pyrazole-5-carboxamide]
25 | < 10 µM | Cc1[nH]nc(C(=O)Nc2cnc3[nH]c(-c4ccnc(C(=O)NCCC#N)c4)cc3c2)c1C [P-2227, N-(2-cyanoethyl)-4-(5-(4,5-dimethyl-1H-pyrazole-3-carboxamido)-1H-pyrrolo[2,3-b]pyridin-2-yl)picolinamide]
26 | < 10 µM | Cc1[nH]nc(C(=O)Nc2cnc3[nH]c(-c4ccncc4Cl)cc3c2)c1C [P-2250, N-(2-(3-chloropyridin-4-yl)-1H-pyrrolo[2,3-b]pyridin-5-yl)-4,5-dimethyl-1H-pyrazole-3-carboxamide]
27 | < 10 µM | COc1nccc(-c2cc3cc(NC(=O)c4n[nH]c(C)c4C)cnc3[nH]2)c1Cl [P-2249, N-(2-(3-chloro-2-methoxypyridin-4-yl)-1H-pyrrolo[2,3-b]pyridin-5-yl)-4,5-dimethyl-1H-pyrazole-3-carboxamide]
